We go through five compounds from US5756488A, “Composition for improving calcium metabolism” (Kuraray Co., Ltd., priority 1995, dated 1998).

The subject of data set [1] is 1,25-dihydroxyvitamin D3 receptor. The note with it: from the literature; cited from earlier work.
Data set [2] deals with vitamin D-binding protein. The following applies: from the literature; cited from earlier work.
Data set [3] addresses T1, vitamin D-binding protein (Rattus norvegicus, UniProt P04276).
T1 construct: from tissue; host or cells: serum of vitamin D-deficient rat, diluted 1:10000, protein not purified
T1 sequence (P04276 17-476): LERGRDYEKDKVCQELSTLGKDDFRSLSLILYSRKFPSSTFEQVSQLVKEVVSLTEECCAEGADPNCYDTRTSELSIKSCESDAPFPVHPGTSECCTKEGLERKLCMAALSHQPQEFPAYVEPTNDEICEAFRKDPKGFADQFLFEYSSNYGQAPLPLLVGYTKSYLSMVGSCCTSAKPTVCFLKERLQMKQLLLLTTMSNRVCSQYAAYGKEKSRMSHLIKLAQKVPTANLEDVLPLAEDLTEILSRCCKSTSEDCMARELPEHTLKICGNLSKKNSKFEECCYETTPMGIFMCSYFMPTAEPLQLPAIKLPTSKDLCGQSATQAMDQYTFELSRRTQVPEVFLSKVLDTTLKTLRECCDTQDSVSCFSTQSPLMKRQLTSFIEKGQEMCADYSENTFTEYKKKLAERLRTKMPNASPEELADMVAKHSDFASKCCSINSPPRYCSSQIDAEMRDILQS
The experiment in a line: Assay of affinity for vitamin D-binding protein (displacement of tritium-labeled 25-hydroxyvitamin D3, serum of vitamin D-deficient rat). The following applies: ratio of ED50 with control = 1, for Compounds 1, 2 and 3 30% replacement values were used. The protocol: Assay of Affinity for Vitamin D-Binding Protein
The serum of vitamin D-deficient rat was diluted 1:10000 with 3.5 mM barbiturate buffer solution (pH 8.6) containing 0.13 M NaCl. […] Then, 500 μl of the diluted solution of vitamin D deficient rat serum was added to each culture tube, which was then subjected to vortex stirring. After incubation at 4° C. for 1 hour, 250 μL of DCC suspension was added and vortex-stirred. Each of the culture tubes was allowed to stand for 15 minutes at 4° C., and centrifuged at 3000 rpm at 4° C. for 10 minutes.

Data set [4] can be described thus: Acute toxicity tests. The following applies: in vivo.

In the case of `C=C1/C(=C\C=C2/CCC[C@]3(C)[C@@H]([C@H](C)OCCC(C)(C)O)CC[C@@H]23)C[C@@H](O)C[C@@H]1O` [22-oxa-1,25-dihydroxyvitamin D3], the “Affinity for the D3 receptor relative to 1,25-dihydroxyvitamin D3” value in data set [1] is given as “one-eighth”. Moreover, the “Affinity for vitamin D-binding protein relative to 1,25-dihydroxyvitamin D3” value in data set [2] was “about one six-hundredth”.
Take `C=C1/C(=C\C=C2/CCC[C@]3(C)[C@@H]([C@@H](C)[C@@H](C)CCC(C)(C)O)CC[C@@H]23)C[C@@H](O)C[C@@H]1O` [Compound 2, (20S,22S)-22-methyl-1α,25-dihydroxyvitamin D3]: in data set [3], the “Affinity for vitamin D-binding protein relative to 1α,25-dihydroxyvitamin D3” value is recorded as 1/500.
Take `C=C1/C(=C\C=C2/CCC[C@]3(C)[C@@H]([C@H](C)[C@H](C)CCC(C)(C)O)CC[C@@H]23)C[C@@H](O)C[C@@H]1O` [Compound 3, (20R,22R)-22-methyl-1α,25-dihydroxyvitamin D3]: the “Affinity for vitamin D-binding protein relative to 1α,25-dihydroxyvitamin D3” value in data set [3] is 1/220.
As to `C=C1/C(=C\C=C2/CCC[C@]3(C)[C@@H]([C@@H](C)[C@H](C)CCC(C)(C)O)CC[C@@H]23)C[C@@H](O)C[C@@H]1O` [Compound 1, (20S,22R)-22-methyl-1α,25-dihydroxyvitamin D3], the “Affinity for vitamin D-binding protein relative to 1α,25-dihydroxyvitamin D3” value is 1/500 and lowest affinity in data set [3]; “one five-hundredth and low” in data set [3] (listed as (20S,22R)-22-methyl-1α,25-dihydroxyvitamin D3). For the same compound, the “Toxicity in acute toxicity tests” value in data set [4] was “low toxicity”.
As for `C=C1/C(=C\C=C2/CCC[C@]3(C)[C@@H]([C@H](C)[C@@H](C)CCC(C)(C)O)CC[C@@H]23)C[C@@H](O)C[C@@H]1O` [Compound 4, (20R,22S)-22-methyl-1α,25-dihydroxyvitamin D3], the “Affinity for vitamin D-binding protein relative to 1α,25-dihydroxyvitamin D3” value in data set [3] is 2/3.
